# Results from patent US10165789B2, “Acerola powder for use as a substitute for ascorbic acid in the agri-food field” (DIANA NATURALS, priority 2012, dated 2019).
# Marks after values point to notes of the source that are not given here.
# Tests used:
# [1] = Overall antioxidant power
# [2] = Antiradical activity, trapping of the free radical DPPH; format: biochemical; conditions: fixed concentration of 0.44 mg/ml ascorbic acid eq; tested in combination with Mg(OH)2 in the proportions present in the powder of the invention
compound,measurement,setting,value
O=C1O[C@H]([C@@H](O)CO)C(O)=C1O [Ascorbic acid],Overall antioxidant power,[1],34 g/100 g of product in ascorbic acid eq
same,Antiradical activity (% of trapping of the free radical DPPH),[2],70.6* %
